# Assay results taken from patent publication US20170037007A1, “SUBSTITUTED N-(2-(AMINO)-2OXOETHYL)BENZAMIDE INHIBITORS OF AUTOTAXIN AND THEIR PREPARATION AND USE IN THE TREATMENT OF LPA-DEPENDENT OR LPA-MEDIATED DISEASES” (X-Rx, Inc., priority 2014, published 2017).
# Target: T1, Autotaxin (Homo sapiens, UniProt Q13822)
# T1 construct: purchased X-Chem
# Experiment: Autotaxin LPC Cascade Assay
# Format: biochemical
# Conditions: 5 nM autotaxin, 100 μM LPC, choline oxidase/HRP/Ampliflu Red fluorescence readout; read-out: IC50 ATX activity values, IC50
# Procedure: Autotaxin LPC Cascade Assay
# HA130 and Test Compounds:
# Highest final concentration is […] for HA130 (Echelon, B-0701) and 30 μM for test compounds. Prepare a 1 mM stock of HA130 and a 3 mM stock of each compound in 100% DMSO. Perform a 1:3 serial dilution in DMSO (transfer 5 μl of compound to 10 μl of DMSO). Add 240 μl of buffer to generate a top working concentration of 40 µM (HA130) and 120 µM (test compound) in 4% DMSO.
# Ampliflu Red—Prepare a stock of 5 mM from 100 mM in 100% DMSO. Further dilute to a working concentration of 400 μM in buffer (8% DMSO).
# Together with compound this yields a 2% DMSO final concentration.
# Choline Oxidase/HRP—0.8 U/ml CO and 8 U/ml HRP.
# Add 5 μl of ATX and 5 μl of compound in a 384 well plate (Corning 3676). Incubate for 10 mins at RT. Add 5 μl of LPC and incubate for 1 hr on the plate shaker. Prepare the CO/HRP and AR prior to use. Add 2.5 μl of CO/HRP and follow with 2.5 μl AR. Note order of addition, CO/HRP mix before AR. Read fluorescence intensity (λex/λem: 530/590 nm) kinetically for 30 min at RT on the Tecan M1000.
row,IC50 [nM],Compound
1,500 to 5000,"CC(C)[C@@H](NC(=O)c1cccc(OC(F)(F)F)c1)C(=O)N1CCC(C)(NC(=O)c2ccc(S(C)(=O)=O)cc2)CC1 [Example 38, (R)—N-(3-Methyl-1-(4-methyl-4-(4-(methylsulfonyl)benzamido)piperidin-1-yl)-1-oxobutan-2-yl)-3-(trifluoromethoxy)benzamide]"
2,500 to 5000,"CNC(=O)C1(Oc2ccccc2)CCN(C(=O)[C@H](NC(=O)c2cccc(C)c2F)C(C)C)CC1 [Example 14, (R)-1-(2-(2-Fluoro-3-methylbenzamido)-3-methylbutanoyl)-N-methyl-4-phenoxypiperidine-4-carboxamide]"
3,100 to 500,"CC(C)[C@@H](NC(=O)c1cccc(OC(F)(F)F)c1)C(=O)N1CCC(C)(Nc2ccc(C(=O)O)cc2)CC1 [Example 9, (R)-4-((4-Methyl-1-(3-methyl-2-(3-(trifluoromethoxy)benzamido)butanoyl)piperidin-4-yl)amino)benzoic acid]"
4,100 to 500,"CC(C)[C@@H](NC(=O)c1cc(C(F)(F)F)ccc1F)C(=O)N1CCC(C)(Nc2ccc(C(=O)O)cc2)CC1 [Example 21, (R)-4-(1-(2-(2-Fluoro-5-(trifluoromethyl)benzamido)-3-methylbutanoyl)-4-methylpiperidin-4-ylamino)benzoic acid]"
5,500 to 5000,"CC(C)[C@H](NC(=O)c1cccc(OC(F)(F)F)c1)C(=O)N1CCC(C)(NCc2ccc(S(C)(=O)=O)cc2)CC1 [Example 42, (S)—N-(3-Methyl-1-(4-methyl-4-((4-(methylsulfonyl)benzyl)amino)piperidin-1-yl)-1-oxobutan-2-yl)-3-(trifluoromethoxy)benzamide]"
6,≥ 10000,"COCC1(Nc2ccccc2)CCN(C(=O)[C@H](NC(=O)c2cccc(C)c2)C(C)C)CC1 [Example 17, (R)—N-(1-(4-(Methoxymethyl)-4-(phenylamino)piperidin-1-yl)-3-methyl-1-oxobutan-2-yl)-3-methylbenzamide]"
7,100 to 500,"CC(C)[C@@H](NC(=O)c1cc(OC(F)F)ccc1F)C(=O)N1CCC(C)(Nc2ccc(S(C)(=O)=O)cc2)CC1 [Example 28, (R)-5-(Difluoromethoxy)-2-fluoro-N-(3-methyl-1-(4-methyl-4-(4-(methylsulfonyl)phenylamino)piperidin-1-yl)-1-oxobutan-2-yl)benzamide]"
8,500 to 5000,"CC(C)[C@@H](NC(=O)c1cc(C(C)(C)C)ccc1F)C(=O)N1CCC(C)(Nc2ccc(S(C)(=O)=O)cc2)CC1 [Example 29, (R)-5-tert-Butyl-2-fluoro-N-(3-methyl-1-(4-methyl-4-(4-(methylsulfonyl)phenylamino)piperidin-1-yl)-1-oxobutan-2-yl)benzamide]"
9,100 to 500,"COc1ccc(NC2(C)CCN(C(=O)[C@H](NC(=O)c3cc(OC(F)(F)F)ccc3F)C(C)C)CC2)cc1 [Example 12, (R)-2-Fluoro-N-(1-(4-((4-methoxyphenyl)amino)-4-methylpiperidin-1-yl)-3-methyl-1-oxobutan-2-yl)-5-(trifluoromethoxy)benzamide]"
10,100 to 500,"COc1ccc(NC2(C)CCN(C(=O)[C@H](NC(=O)c3cccc(OC(F)(F)F)c3)C(C)C)CC2)cc1 [Example 8, (R)—N-(1-(4-((4-Methoxyphenyl)amino)-4-methylpiperidin-1-yl)-3-methyl-1-oxobutan-2-yl)-3-(trifluoromethoxy)benzamide]"
11,500 to 5000,"CCc1ccc(F)c(C(=O)N[C@@H](C(=O)N2CCC(Oc3ccc(S(C)(=O)=O)cc3)(C(=O)NC)CC2)C(C)C)c1 [Example 15, (R)-1-(2-(5-Ethyl-2-fluorobenzamido)-3-methylbutanoyl)-N-methyl-4-(4-(methylsulfonyl)phenoxy)piperidine-4-carboxamide]"
12,500 to 5000,"CC(C)[C@@H](NC(=O)c1cc(OC(F)(F)F)ccc1F)C(=O)N1CCC(C)(NC(=O)c2ccc(S(C)(=O)=O)cc2)CC1 [Example 37, (R)-2-Fluoro-N-(3-methyl-1-(4-methyl-4-(4-(methylsulfonyl)benzamido)piperidin-1-yl)-1-oxobutan-2-yl)-5-(trifluoromethoxy)benzamide]"
13,100 to 500,"CC(C)[C@@H](NC(=O)c1cc(C2CC2)ccc1F)C(=O)N1CCC(C)(Nc2ccc(S(C)(=O)=O)cc2)CC1 [Example 33, (R)-5-Cyclopropyl-2-fluoro-N-(3-methyl-1-(4-methyl-4-(4-(methylsulfonyl)phenylamino)piperidin-1-yl)-1-oxobutan-2-yl)benzamide]"
14,500 to 5000,"CCc1ccc(F)c(C(=O)N[C@@H](C(=O)N2CCC(Oc3ccc(S(C)(=O)=O)cc3)(C(=O)N(C)C)CC2)C(C)C)c1 [Example 16, (R)-1-(2-(5-Ethyl-2-fluorobenzamido)-3-methylbutanoyl)-N,N-dimethyl-4-(4-(methylsulfonyl)phenoxy)piperidine-4-carboxamide]"
15,100 to 500,"COc1ccc(CNC2(C)CCN(C(=O)[C@H](NC(=O)c3cc(OC(F)(F)F)ccc3F)C(C)C)CC2)cc1 [Example 40, (R)-2-Fluoro-N-(1-(4-((4-methoxybenzyl)amino)-4-methylpiperidin-1-yl)-3-methyl-1-oxobutan-2-yl)-5-(trifluoromethoxy)benzamide]"
16,100 to 500,"CCc1ccc(F)c(C(=O)N[C@@H](C(=O)N2CCC(C)(CNc3ccc(S(C)(=O)=O)cc3)CC2)C(C)C)c1 [Example 35, (R)-5-Ethyl-2-fluoro-N-(3-methyl-1-(4-methyl-4-((4-(methylsulfonyl)phenylamino)methyl)piperidin-1-yl)-1-oxobutan-2-yl)benzamide]"
17,500 to 5000,"CC(C)[C@@H](NC(=O)c1cc(Cc2ccccc2)ccc1F)C(=O)N1CCC(C)(Nc2ccc(S(C)(=O)=O)cc2)CC1 [Example 30, (R)-5-Benzyl-2-fluoro-N-(3-methyl-1-(4-methyl-4-(4-(methylsulfonyl)phenylamino)piperidin-1-yl)-1-oxobutan-2-yl)benzamide]"
18,500 to 5000,"CCc1ccc(F)c(C(=O)N[C@@H](C(=O)N2CCC(C#N)(Nc3ccc(S(C)(=O)=O)cc3)CC2)C(C)C)c1 [Example 18, (R)—N-(1-(4-Cyano-4-(4-(methylsulfonyl)phenylamino)piperidin-1-yl)-3-methyl-1-oxobutan-2-yl)-5-ethyl-2-fluorobenzamide]"
19,5000 to 10000,"Cc1cccc(C(=O)N[C@@H](C(=O)N2CCC(C)(Nc3cccc(C#N)c3)CC2)C(C)C)c1F [Example 2, (R)—N-(1-(4-(3-Cyanophenylamino)-4-methylpiperidin-1-yl)-3-methyl-1-oxobutan-2-yl)-2-fluoro-3-methylbenzamide]"
20,10 to 100,"CCc1ccc(F)c(C(=O)N[C@@H](C(=O)N2CCC(C)(Nc3ccc(CS(C)(=O)=O)cc3)CC2)C(C)C)c1 [Example 26, (R)-5-Ethyl-2-fluoro-N-(3-methyl-1-(4-methyl-4-(4-(methylsulfonylmethyl)phenylamino)piperidin-1-yl)-1-oxobutan-2-yl)benzamide]"
21,100 to 500,"CC1CCc2cc(F)c(C(=O)N[C@@H](C(=O)N3CCC(C)(Nc4ccc(S(C)(=O)=O)cc4)CC3)C(C)C)cc21 (stereo partly drawn) [Example 25, 6-Fluoro-3-methyl-N—((R)-3-methyl-1-(4-methyl-4-(4-(methylsulfonyl)phenylamino)piperidin-1-yl)-1-oxobutan-2-yl)-2,3-dihydro-1H-indene-5-carboxamide]"
22,500 to 5000,"Cc1cccc(C(=O)N[C@@H](C(=O)N2CCC(C)(Nc3ccc(S(C)(=O)=O)cc3)CC2)C(C)C)c1F [Example 3, (R)-2-Fluoro-3-methyl-N-(3-methyl-1-(4-methyl-4-(4-(methylsulfonyl)phenylamino)piperidin-1-yl)-1-oxobutan-2-yl)benzamide]"
23,100 to 500,"CC(C)[C@@H](NC(=O)c1cc(-c2ccccc2)ccc1F)C(=O)N1CCC(C)(Nc2ccc(S(C)(=O)=O)cc2)CC1 [Example 32, (R)-4-Fluoro-N-(3-methyl-1-(4-methyl-4-(4-(methylsulfonyl)phenylamino)piperidin-1-yl)-1-oxobutan-2-yl)biphenyl-3-carboxamide]"
24,10 to 100,"CC(C)c1ccc(F)c(C(=O)N[C@@H](C(=O)N2CCC(C)(Nc3ccc(S(C)(=O)=O)cc3)CC2)C(C)C)c1 [Example 36, (R)-2-Fluoro-5-isopropyl-N-(3-methyl-1-(4-methyl-4-(4-(methylsulfonyl)phenylamino)piperidin-1-yl)-1-oxobutan-2-yl)benzamide]"
25,500 to 5000,"CC(C)[C@@H](NC(=O)c1cccc(OC(F)(F)F)c1)C(=O)N1CCC(C)(Nc2ccccc2)CC1 [Example 7, (R)—N-(3-Methyl-1-(4-methyl-4-(phenylamino)piperidin-1-yl)-1-oxobutan-2-yl)-3-(trifluoromethoxy)benzamide]"
26,100 to 500,"CC1(Nc2ccc(S(C)(=O)=O)cc2)CCN(C(=O)[C@H](NC(=O)c2cc(OC(F)(F)F)ccc2F)C2CC2)CC1 [Example 13, (R)—N-(1-Cyclopropyl-2-(4-methyl-4-((4-(methylsulfonyl)phenyl)amino)piperidin-1-yl)-2-oxoethyl)-2-fluoro-5-(trifluoromethoxy)benzamide]"
27,10 to 100,"CC(C)[C@@H](NC(=O)c1cc(OC(F)(F)F)ccc1F)C(=O)N1CCC(C)(NCc2ccc(S(C)(=O)=O)cc2)CC1 [Example 39, (R)-2-Fluoro-N-(3-methyl-1-(4-methyl-4-((4-(methylsulfonyl)benzyl)amino)piperidin-1-yl)-1-oxobutan-2-yl)-5-(trifluoromethoxy)benzamide]"
